Data: ChEMBL document CHEMBL6127064, “Discovery of GNE-6893, a Potent, Selective, Orally Bioavailable Small Molecule Inhibitor of HPK1” (ACS Med Chem Lett, 2024)
Converted amounts (≈) assume the structure as drawn.

Assays:
[1] = Volume of distribution at steady state in Sprague-Dawley rat at 0.5 mg/kg, iv measured for 8 hrs by LC-MS/MS analysis; assay type: ADME, organism-based; details: in vivo, read-out: Vdss
[2] = Apparent permeability of the compound across apical to basolateral side in dog MDCK1 cells at 10 uM by LC-MS/MS analysis; assay type: ADME, cell-based, Canis lupus familiaris; details: MDCK
[3] = Volume of distribution at steady state in C57BL/6 mouse at 25 mg/kg, po or 1 mg/kg, iv measured for 24 hrs by LC-MS/MS analysis; assay type: ADME, organism-based; details: in vivo
[4] = Half life in Sprague-Dawley rat at 0.5 mg/kg, iv measured for 8 hrs by LC-MS/MS analysis; assay type: ADME, organism-based; details: in vivo
[5] = Clearance in Sprague-Dawley rat at 0.5 mg/kg, iv measured for 8 hrs by LC-MS/MS analysis; assay type: ADME, organism-based; details: in vivo
[6] = Oral bioavailability in Sprague-Dawley rat; assay type: ADME, organism-based; details: in vivo
[7] = Inhibition of human full length HPK1-T165E/S171E mutant expressed in baculovirus expression system assessed as inhibition of SLP76 phosphorylation using biotinylated SLP76 as substrate preincubated for 30 mins followed by incubation with substrate in presence of ATP and measured for 60 mins by HTRF assay
[8] = Kinetic solubility of the compound in PBS at pH 7.4; assay type: physicochemical; details: read-out: Kinetic_solubility
[9] = Half life in C57BL/6 mouse at 25 mg/kg, po or 1 mg/kg, iv measured for 24 hrs by LC-MS/MS analysis; assay type: ADME, organism-based; details: in vivo

SMILES: Cc1c(N)cncc1-c1cc2cc(NC(=O)OC3CCOCC3)ncc2c(N)c1F
- Vd [1]: 3.2 L/kg
- Papp A→B at 10 µM [2]: 15 ×10⁻⁶ cm/s
- Vdss [3]: 1.7 L/kg
- half-life [4]: 1.2 h
- clearance [5]: 38 mL/min/kg
- bioavailability [6]: 94%
- Ki [7]: 498 pM
- solubility kinetic [8]: 13 µM (≈ 5.35 µg/mL)
- half-life [9]: 1.3 h
